Assay results taken from US7563766B2, “Methods and compositions for the promotion of a hair growth utilizing actin binding peptides” (The United States of America as represented by the …, priority 2002, dated 2009).
Entries after “also recorded” stand apart in the source; their conditions may differ. Ends that are not written are not given here.

How the values were obtained:
hair follicles = experiment: Topical thymosin β4 or T-3 on shaved aged BALB/c mice; format: in vivo, mouse; settings: 5 μg/50 μl in water
Protocol: These mice are considered highly aged as they are alive beyond the normal mouse life expectancy. […] The mice were shaved and treated as described above with thymosin β4 at the time of shaving and 48 hours later. At day 7, the skin was harvested and examined histologically, as described above in Example 1.
The T-3 fragment was produced using an automated peptide synthesizer, as is well known in the art.
The synthetic T-3 peptide was applied in a water solution/mixture at a concentration/dose of 5 μg/50 μl. […] Thus, a fragment of thymosin β4 comprising these amino acids is useful in hair regeneration compositions.

[1] = system: human umbilical vein endothelial cells; experiment: HUVEC migration, Boyden chamber assay; format: cell-based
Protocol: (§1) Cells—HUVECs were isolated and used at passages 2-5. Grant et al., J. Cell Sci. 108:3685-3694 (1995). The cells were cultured in RPMI 1640 (Invitrogen, Carlsbad, Calif.) supplemented with 20% bovine calf serum (Hyclone Laboratories, Logan, Utah), 200 μg/ml of endothelial cell growth supplement (ECGS) (Collaborative Biomedical Products, Bedford, Mass.), 0.8 U/ml heparin sodium (Fisher Scientific, Pittsburgh, Pa.), penicillin/streptomycin (Invitrogen, Carlsbad, Calif.), 10 μg/ml gentamycin (Invitrogen, Carlsbad, Calif.), and 1% fungizone (Invitrogen, Carlsbad, Calif.).
Boyden chamber assay—HUVEC migration assays were conducted in a 48-well micro-chemotaxis chamber (Neuro Probe Inc., Cabin John, Md.) as previously described in Salcedo et al., J. Immunol. 166:7571-7578 (2001). Briefly, PVP-free polycarbonate membranes with 8 μm pores were coated with 50 μg/ml of rat tail collagen (BD Biosciences, Bedford, Mass.) in RPMI 1640 that contained 25 mM HEPES (Invitrogen, Carlsbad, Calif.) at 4° C. overnight. The membranes were dried at least 1 hr prior to use. HUVECs were serum-starved for 2 hr, harvested using Versene (Invitrogen, Carlsbad, Calif.), and resuspended in binding medium that contained RPMI 1640 with 1% BSA and 25 mM HEPES. The lower wells of the chamber were loaded with 1, 10, 100, and 1000 ng/ml of thymosin β4 or peptide fragments that were diluted in binding medium. Basic fibroblast growth factor (bFGF) (200 ng/ml) was used as a positive control. Cells were added to the upper portion of the chamber at a concentration of 50,000 cells per well. The chambers were incubated at 37° C. for 4 hr. The filters were fixed and stained using Diff-Quik (VWR, Bridgeport, N.J.). The cells that successfully migrated through the pores of the membrane were manually quantitated using a CK-2 Olympus microscope at 10× magnification. Each condition was assayed in triplicate, and the assay was repeated twice.

chick aortic arches = experiment: Chick aortic arch vessel sprouting assay; format: cell-based; parameters: key to Sprouting: − = no activity; +/− = low activity; + = active; ++ = high activity; settings: for effect of actin on thymosin β4-mediated sprouting: 5-50 nM
Protocol: Chick aortic arch assay—The aortic arch of 13-day-old chick embryos was removed and placed in RPMI 1640. After removal of surrounding connective tissue, transverse sections of the arch were made (1 mm). The resulting aortic rings were carefully attached to the bottom of a 48-well plate, one ring per well, with 20-30 μl of Matrigel (Collaborative Biomedical Products). The rings were placed so that the lumen of each ring could be seen. More Matrigel was added onto the top of the rings to seal them in place. A 100 μl volume of human endothelial—SFM basal growth medium (Invitrogen) containing 1% penicillin streptomycin was added to each well. Thymosin β4, peptide fragments, and exogenous actin (Sigma Chemical Co.) were added to wells in serum-free medium, bringing the final volume of each well to 400 μl. ECGS (200 μg/ml) was used as a positive control. The plates were incubated for 24 hr at 37° C. Rings were fixed and stained with Diff-Quik solution II. Sprouting was scored in a blind assessment by an observer using 10× magnification on an Olympus microscope. Six wells were used for each condition tested, and each assay was done three times.

HUVEC = HUVEC cell adhesion assay; format: cell-based, human
Protocol: as §1
Cell adhesion—In order to determine which ions are needed for HUVEC adhesion, Laminin-1 peptide (25 ng in 50 μl) and two test concentrations of Tβ4 (100 ng and 500 ng in 50 μl) in 0.1 M carbonate buffer, pH 9.4, were bound to the bottom of U-bottom 96-well plates overnight at 4° C. Wells were then washed twice with PBS and blocked with 150 μl of 3% BSA in PBS (Sigma Chemical Co., St. Louis, Mo.) at room temperature for 30 min. […] The remaining cells were stained with 0.2% crystal violet in 20% methanol, washed in water to remove excess stain, dried overnight at 37° C., and lysed with 10% SDS for 10 min, and the plate OD was read at 600 nm. (Molecular Devices precision microplate reader). […]

[2] = system: male and female androgenetic patients; settings: human, in vivo; cited from earlier work

Molecule	hair follicle development vs water alone (hair follicles)	endothelial cell migration, in words [1]	vessel sprouting, in words (chick aortic arches)	Sprouting (chick aortic arches; Table 2 score)	activity in the assays (endothelial cell migration and vessel sprouting) (chick aortic arches; statement covers both migration and sprouting assays)	effect of actin on ECGS-mediated vessel sprouting (chick aortic arches; exogenous actin added)	effect of actin on thymosin β4-mediated sprouting (chick aortic arches; exogenous actin added)	effect of actin on thymosin β4-mediated sprouting (chick aortic arches; exogenous actin added, listed as soluble actin)	effect of actin on laminin-1-mediated adhesion (HUVEC; control)	effect of actin on cell adhesion to thymosin β4 (HUVEC; soluble actin added, 5-50 nM)	side effects [2]
LKKTETQ [Peptide T-3]	increased hair follicle development	fully active	fully active	++	generally highly active	–	–	–	–	–	–
actin [reference compound]	–	–	angiogenic activity	–	–	did not inhibit	significantly inhibited	inhibited	no effect	inhibited; also recorded: blocked adhesion	–
Nc1cc(N2CCCCC2)nc(N)[n+]1[O-] [minoxidil]	–	–	–	–	–	–	–	–	–	–	scalp irritation and increased facial hair
